Assay [1] has as its target T1, MBP-Sb9 (Homo sapiens, UniProt P50453).
T1 construct: made in house
The assay can be described thus: Surface plasmon resonance (SPR) binding. As to conditions: 25° C., 1:1 Langmuir model. As for the experimental part:
Surface plasmon resonance (SPR) measures change in refractive index on a biosensor surface, as analytic mass accumulates via binding to an attached ligand. This allows derivation of affinity (KD) from measured kinetic rates of association (ka) and dissociation (kd). All assays were run at 25° C. on a BiOptix 404pi. An NTA biosensor chip was used in this study to pre-concentrate 3 μM MBP-Sb9 via an N-terminal His-tag. MBP-Sb9 was covalently immobilized with EDC/NHS in 20 mM HEPES pH 8.0, 150 mM NaCl, 0.05% Tween-20, 5 mM β-ME to 10,000 to 15,000 RUs. MBP was similarly immobilized on a separate channel as a negative control. Compounds were injected as 3-fold serial dilutions in duplicate starting at 200 μM. Injections were done at 50 μL/min for 60 seconds, followed by a 120 second dissociation in 20 mM HEPES, pH 8.0, 150 mM NaCl, 0.05% Tween-20, 5 mM j-ME, 1% DMSO. A series of five DMSO standards between 0.5% and 1.5% were included with each run to correct for bulk refractive index. Sensorgrams were analyzed using Scrubber 2 software with a double reference and fit to a 1:1 Langmuir model to determine the interaction parameters KD, ka, and kd.
(In general: SPR reads the build-up and loss of mass on a sensor chip optically.)

In a further assay the target is MBP (Escherichia coli, UniProt P0AEX9). The assay can be described thus: SPR negative control channel. Format: binding. As for the experimental part: FIG. 4B. Sensorgrams of compounds 3,4-dihydroxybenzoic acid (top), 3-oxo-1-indancarboxylic acid (middle), and the compound of Formula (III) (bottom) show the binding of 3,4-dihydroxybenzoic acid and the compound of Formula (III) to Sb9 (top), but not to MBP (bottom) by Surface Plasmon Resonance (SPR).
All assays were run at 25° C. on a BiOptix 404pi. An NTA biosensor chip was used in this study to pre-concentrate 3 μM MBP-Sb9 via an N-terminal His-tag. MBP-Sb9 was covalently immobilized with EDC/NHS in 20 mM HEPES pH 8.0, 150 mM NaCl, 0.05% Tween-20, 5 mM β-ME to 10,000 to 15,000 RUs. MBP was similarly immobilized on a separate channel as a negative control.

The test system of assay [2] is MBP-Sb9. The assay can be described thus: Thermal stability assay (TSA) fragment screen. Format: binding. The following applies: 5000 to 21 μM. As for the experimental part: FIG. 4A. The upper panels show the TSA results of the MBP-Sb9 protein incubated with 5 mM 3,4-dihydroxybenzoic acid (3,4-DHBA; left) and 3-oxo-1-indancarboxylic acid (right), or with 2.5% DMSO. The thermal shifts of the compounds 3,4-dihydroxybenzoic acid and 3-oxo-1-indancarboxylic acid are shown in a thick dark line against a baseline control shown as a thin gray line. The bottom panels show the TSA results of the MBP-Sb9 protein incubated with 3,4-dihydroxybenzoic acid (left) or 3-oxo-1-indancarboxylic acid (right) at different concentrations, including 5000, 1667, 556, 185, 62, and 21 μM. The concentration-response curves are plotted in a black/gray color scale (higher intensity is higher concentration) and the straight line plots represent the compound background signal.
TSA is an analytic tool to estimate the overall stability of a protein by monitoring the shift in its melting temperature upon changing the buffer conditions or titrating various ligands. As the protein unfolds with increasing temperature in a thermal cycler (CFX384 Touch Real-Time PCR Detection System), SYPRO orange dye binds to the exposed hydrophobic core and fluoresces, leading to the signal that is measured in comparison to temperature to produce a melt curve. […] Dye was added at 2×strength, and the readings were performed from 25° C. to 95° C. at 0.5° C. intervals. […]

The subject of assay [3] is B16-WT and B16-Sb9 KO cells. The experiment in a line: IL2-induced GrB expression and apoptosis by flow cytometry. Format: cell-based, mouse. The following applies: 10 μM; IL2 70 ng/mL, 48 h. The source says: FIG. 1H. […] Data are expressed as means±SD from three independent experiments. ***P<0.001 (Student's t-test).
FIGS. 1J-1K. […] Cells treated with PBS alone were used as a negative control. Data are expressed as means±SD from three independent experiments. *P<0.05, ***P<0.001 (Student's t-test).
A general note: In flow cytometry, cells or beads pass a laser one at a time.

SMILES strings stand for the structures. Residues, ends and D or L forms follow the SMILES beside them. *: point of attachment. Cbz = O=C(OCc1ccccc1)*; CH2Cl = ClC*

T1 sequence (P50453 whole entry): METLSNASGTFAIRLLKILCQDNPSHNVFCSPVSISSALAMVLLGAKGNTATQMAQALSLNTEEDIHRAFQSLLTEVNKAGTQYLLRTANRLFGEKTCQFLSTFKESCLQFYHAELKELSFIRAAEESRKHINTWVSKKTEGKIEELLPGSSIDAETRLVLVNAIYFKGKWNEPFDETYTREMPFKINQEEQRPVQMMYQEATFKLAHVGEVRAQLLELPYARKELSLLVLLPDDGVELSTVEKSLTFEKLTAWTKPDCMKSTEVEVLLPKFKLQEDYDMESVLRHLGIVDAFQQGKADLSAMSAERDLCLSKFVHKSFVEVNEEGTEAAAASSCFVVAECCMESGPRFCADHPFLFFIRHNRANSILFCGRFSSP

For `O=C(O)c1ccc(O)c(O)c1` [3,4-dihydroxybenzoic acid, reference compound], the Kd at MBP-Sb9 [1] amounted to 88 µM. The “binding to MBP (negative control)” value at MBP was “not to MBP”. Also, the Tm1 shift result in the assay with MBP-Sb9 [2] is recorded as “dose-dependent Tm1 shift”.
Consider `O=C1CC(C(=O)O)c2ccccc21` (centres unmarked) [3-oxo-1-indancarboxylic acid], for which the Tm1 shift entry with MBP-Sb9 [2] is recorded as “dose-dependent Tm1 shift”.
As to `C[C@H](NC(=O)OCc1ccccc1)C(=O)N[C@@H](C)C(=O)N[C@@H](CC(=O)O)C(=O)CCl` [GrB inhibitor (368050)] (Cbz-Ala-Ala-Asp-CH2Cl), in assay [3], the “apoptosis of IL2-treated cells” value was “suppresses apoptosis”.

By Kd is commonly meant the concentration at which binding is half-saturated. A low value points to tighter binding.

Source of the values: patent US20230255906A1, “Targeting Serpin B9 in Cancer” (The Brigham and Women`s Hospital, Inc., priority 2020, published 2023).
